Data as given in patent EP0456183B1, “Spiro dibenzosuberane derivatives” (SHIONOGI SEIYAKU KABUSHIKI KAISHA, priority 1990, dated 1991).

The molecules below were run against T1, PCP (Phencylidine) receptor (Rattus norvegicus, UniProt P35439) (assay: Binding test against PCP (Phencylidine) receptor, 3H-TCP displacement in rat cortex membrane preparation). Settings: rat cortex receptor preparation (0.2mg protein/ml), labelled ligand 3H-TCP, 25 °C 30 minutes.
T1 construct: the pellets were then suspended in 5mM Tris-HCI buffer and used as the receptor preparation; from tissue; host or cells: rat (male Slc-Wistar) cerebral cortex membrane preparation
Set-up: species or system rats (male, Slc-Wistar rat)
Description: Binding test against PCP (Phencylidine) receptor Experiment
After the decapitation of rats (male, Slc-Wistar rat, 10 15 weeks age), the cortex tissues was rapidly removed and each was weighed. The tissue was homogenized with ten-fold amount of ice-cold 50mM Tris-HCI buffer (pH7.4), and centrifuged at 40,000 x g for 10 minutes. This procedure is repeated 3 times. Then the obtained sample was freeze-dried in liquid nitrogen and preserved at -80 ° C On the test day, the sample was thawed at room temperature and centrifuged at 40,000 x g for 10 minutes, the pellets were then suspended in 5mM Tris-HCI buffer and used as the receptor preparation (0.2mg protein/ml). The preparation was added to the mixture containing the labelled ligand (^3H-TCP, […]) and the test drug, and the incubation was carried out (25 °C 30 minutes). The reaction was stopped by rapid filtering through Whatman GF/C filter and the filtrate was washed. Radioactivity on filters was determined by liquid scintillation counter and Ki value was calculated. The Whatmann GF/C filter was soaked in 0.05 % polyethyleneimine. (Literature : Vignon, J. et al., Brain R.,280; 194-197 (1983))

SMILES | Ki [µM]
c1ccc2c(c1)CCc1ccccc1C21CCCN1 [I a-1, Spiro(dibenzosuberane-5,2'-pyrrolidine)] | 0.047
CCN1CCCC12c1ccccc1CCc1ccccc12 [I a-3, Spiro[dibenzosuberane-5,2'-(1-ethylpyrrolidine)]] | 0.62
Cc1ccc2c(c1)C1(CCCN1)c1ccccc1CC2 (stereo not drawn) [I a-7] | 0.031
Cc1ccc2c(c1)C1(CCCN1C)c1ccccc1CC2 (stereo not drawn) [I a-8] | 0.51
CCCN1CCCC12c1ccccc1CCc1ccc(C)cc12 (stereo not drawn) [I a-9, Spiro[3-methyldibenzosuberane-5,2'-(1-n-propylpyrrolidine)]] | 0.77
CCN1CCCC12c1ccccc1CCc1ccc(C)cc12 (stereo not drawn) [I a-10] | 0.25
Cc1ccc2c(c1)C1(CCCN1Cc1ccccc1)c1ccccc1CC2 (stereo not drawn) [I a-11] | > 0.71
Clc1ccc2c(c1)C1(CCCN1)c1ccccc1CC2 (stereo not drawn) [I a-13, Spiro(3-chlorodibenzosuberane-5,2'-pyrrolidine)] | 0.023
CCN1CCCC12c1ccccc1CCc1ccc(Cl)cc12 (stereo not drawn) [I a-14] | 0.54
